Test results: ChEMBL document CHEMBL1201862, “PubChem BioAssay data set” (2004)
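Assay format: 96-well plates, 48-hour exposure. GI50 marks 50% less growth.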 Active and inactive are the calls of the source. No stated cut-off is given here; in the data, active = GI50 up to about 1.1 µM and inactive = higher.

What was measured:
Assay in all cases: inhibition of tumour cell growth, NCI panel, 48 h
[1] = test system: CCRF-CEM
[2] = test system: COLO 205
[3] = test system: EKVX
[4] = test system: HOP-62
[5] = test system: HOP-92
[6] = test system: HT-29
[7] = test system: IGROV-1
[8] = test system: K562
[9] = test system: MOLT-4
[10] = test system: NCI-H226
[11] = test system: NCI-H23
[12] = test system: NCI-H460
[13] = test system: SF-539
[14] = test system: SK-MEL-2
[15] = test system: SK-OV-3
[16] = test system: SN12C
[17] = test system: SW-620
[18] = test system: U-251
[19] = test system: UACC-62
[20] = test system: UO-31

Measured: GI50

Cc1cn([C@@H]2C[C@H](CO)[C@@H](O)C2)c(=O)[nH]c1=O
inactive: [1] > 100 µM | [2] > 100 µM | [3] > 100 µM | [4] > 100 µM | [5] > 100 µM | [6] > 100 µM | [7] > 100 µM | [8] > 100 µM | [9] > 100 µM | [10] > 100 µM | [11] > 100 µM | [12] > 100 µM | [13] > 100 µM | [14] > 100 µM | [15] > 100 µM | [16] > 100 µM | [17] > 100 µM | [18] > 100 µM | [19] > 100 µM | [20] > 100 µM

Cc1ccc(C2C(Cl)C(=O)N2NC(=O)c2ccc(N)cc2)cc1 (stereo not given)
inactive: [1] 7.73 µM | [2] 22.6 µM | [3] 28.8 µM | [4] 22.4 µM | [5] 14.5 µM | [6] 21.2 µM | [7] 8.97 µM | [8] 22.5 µM | [9] 11.4 µM | [10] 27.4 µM | [11] 16 µM | [12] 17.6 µM | [13] 23.9 µM | [14] 1.33 µM | [15] 20.1 µM | [16] 22.7 µM | [17] 21 µM | [18] 14.6 µM | [19] 15.8 µM | [20] 30 µM

C1=C(c2ccccc2)SC(N2CCCCC2)S1 (stereo not given)
inactive: [1] 95.5 µM | [2] > 100 µM | [3] 86.7 µM | [4] > 100 µM | [5] > 100 µM | [6] > 100 µM | [7] > 100 µM | [8] 52.2 µM | [9] 81.5 µM | [10] > 100 µM | [11] > 100 µM | [12] > 100 µM | [13] > 100 µM | [14] > 100 µM | [15] > 100 µM | [16] > 100 µM | [17] > 100 µM | [18] > 100 µM | [19] > 100 µM | [20] > 100 µM
